Tests used:
[1] = test system: SKOV3 cells (human ovarian cancer-derived cell line); assay: Cell proliferation activity in three-dimensional medium FCeM, ATP assay (Experimental Example 1); assay type: cell-based; conditions: SKOV3, 3D medium FCeM, 4 days, DMSO control = 100%, average of two tests
Description: A cell proliferation promoting effect when the compound to be used in the present invention was added to a three-dimensional medium was studied. Specifically, precultured (adhesion cultured) SKOV3 cells (human ovarian cancer-derived cell line) were recovered and suspended in a three-dimensional cell culture medium (“FCeM (registered trade mark)” (Nissan chemical corporation)) to prepare a cell suspension. […] The cell suspension seeded in the plate was stood overnight at 37° C., 5% CO2. Then, a DMSO diluted solution (4.44 μL) of the compound to be used in the present invention was added at a final concentration of 5 μM (or two steps of […] and 10 μM) (no stirring after addition). After addition of each compound, the mixtures were stood for 4 days at 37° C., 5% CO2. […] The luminescence intensity (RLU value) was measured by FlexStation3 (manufactured by Molecular Devices), and cell proliferation was evaluated.
The proliferation rate was calculated based on the control (cells added with DMSO without containing the compound to be used in the present invention) as the standard (100%). The values shown in the tables are average values of the results of two tests.

[2] = test system: a plurality of cancer cell lines; assay: Various human cancer cells-1, summary over the cell lines (Experimental Example 5); assay type: cell-based; conditions: cancer cell lines under three-dimensional conditions
Excerpt: Various human-derived cancer cells were precultured (single layer culture) in respective media shown below. […]

Structure (SMILES) | proliferation rate (%) (5 μM) ([1]; 5 μM) | proliferation rate (%) (10 μM) ([1]; 10 μM) | proliferation activity (in words) [2] | proliferation rate (%) ([1]; compound 5 μM)
CC/C(=N\NC(=O)Nc1ccccc1)c1ccc(O)c(C)c1O [k-1:H-10] | 127.9 | 138.4 | promoted proliferation activity in a plurality of cancer cell lines | –
CCC(=NNC(=O)C(CC)Nc1ccccc1)c1ccc(O)c(C)c1O (centres unmarked) [k-1:H-7] | – | – | promoted proliferation activity in a plurality of cancer cell lines | 236.46

Reference: patent US20200165194A1, “ADDITIVE COMPOSITION FOR CULTURE MEDIUM, ADDITIVE COMPOUND FOR CULTURE MEDIUM, AND METHOD FOR CULTURE OF CELLS OR TISSUE USING SAME” (NISSAN CHEMICAL CORPORATION, priority 2017, published 2020)
